# Source: patent US20080287469A1, “Phosphoinositide 3-Kinase Inhibitors for Inhibiting Leukocyte Accumulation” (priority 2005, published 2008)
# Experiments:
# [1] = Plasma concentration of the compound after oral administration; format: in vivo, mice; conditions: 4 h post-oral administration; P-selectin−/− mice
# Protocol: Animals received a single oral dose of either a compound in accordance with the invention (25 mg/kg for mice and 20 or 40 mg/kg for rats) or vehicle (PEG-400). Blood samples were subsequently drawn at indicated time points and plasma concentration of the compound determined after liquid-liquid extraction by LC/MS. The lower quantification limit was 50 ng/ml. Plasma samples from control animals (vehicle alone) were used as the blank control.
# p110δ [2] = molecular target: T1, p110δ (Mus musculus, UniProt O35904); assay: Immunoprecipitation and PI3K activity assay: p110δ from spleen extracts of WT mice; format: biochemical; conditions: 10 μM; vs vehicle control
# T1 construct: this enzyme isolated from spleen extracts of WT animals; from tissue; host or cells: mouse spleen
# Protocol: Spleens from WT mice were pulverized in liquid nitrogen cooled mortar and solubilized in PI3-kinase lysis buffer (50 mM Tris-HCl (pH 7.4), 1% Triton X-100, 150 mM NaCl, 1 mM EDTA and a cocktail of inhibitors to serine and cysteine proteases (Complete™, Mini, Roch Applied Science, IN). HUVEC lysates were prepared as described. (Puri et al., Blood, 103:3448-3456 (2004)) Lysates were precleared with protein A-Sepharose and aliquots of the supernatants were incubated with antibodies specific for p110δ and p110γ, or control antibody for 1 hour at 4° C., followed by addition of protein A-Sepharose for 2 hours at 4° C. Precipitates were washed once with lysis buffer, twice with 0.1 M Tris-HCl, pH 7.4; 5 mM LiCl; and 0.1 mM sodium orthovanadate and once with PI 3-kinase buffer containing 20 mM Hepes, pH 7.4, 10 μM ATP, 5 mM MgCl2, plus 50 μg/ml horse IgG (Pierce, Rockford, Ill.). Lipid kinase activity was determined as previously described. (Sadhu et al., J. Immunol., 170:2647-2654 (2003)) The radioactive product PIP3 was captured onto a 96-well polyvinylidene difluoride filter plate (Millipore, Billerica, Mass.) and the bound radioactivity was quantitated with Microbeta Liquid Scintillation Counter (PerkinElmer Life Sciences, Boston, Mass.).
# [3] = test system: neutrophils on inflamed venular endothelium (E-selectin-dependent adhesion); assay: Intravital microscopy of TNFα-stimulated cremaster muscle venules, P-selectin−/− mice; format: in vivo; conditions: oral, one hour prior to TNFα-stimulation, vs vehicle
# Protocol: The surgical preparation of animals for all in vivo studies was performed using standard techniques. (Puri et al., Blood, 103:3448-3456 (2004)) An inflammatory response in the cremaster muscle (CM) venules of mice was induced by an intrascrotal injection of recombinant murine TNFα (20 ng/mouse). The tissue was surgically exposed 3 h post-cytokine stimulation and viewed on an intravital microscope (IV-500; Mikron instruments). GFP-expressing cells were visualized in the microcirculation through X^60 water immersion objective (Zeiss) using an intensified camera (VE1000SIT; Dage mti) and epifluorescence illumination. Rolling fraction was defined as the percentage of cells that interact with a given region of venule as compared to the total number of cells that enter that vessel (interacting and non-interacting) during the same time period. Venular shear rates were determined from optical Doppler velocimeter measurements of centerline erythrocyte velocity. Video images were recorded using a Hi8 VCR (Sony) and analysis of performed using a PC-based image analysis system.
# Although P-selectin expressed on endothelium predominates in the initial capture of circulating neutrophils in acute tissue injury, it is E-selectin that accounts for the phenotypically slow rolling movements of these cells in microvessels of TNFα-stimulated CM. […]
# p110δ [4] = molecular target: p110δ (Homo sapiens, UniProt O00329); conditions: cited from earlier work
# [5] = test system: TNFα-stimulated HUVEC monolayers; assay: Laminar flow assay: neutrophil capture by TNFα-stimulated HUVEC monolayers; format: cell-based, human; conditions: wall shear rate 200 s^−1; IC87114 2 μM, LY294002 10 μM, Bay 11-7082 10 μM, CL3 50 μg/ml
# Protocol: Peripheral blood neutrophils were isolated from healthy volunteers and infused over the endothelial cell monolayer that was incorporated into a parallel plate flow chamber (GlycoTech) for 5 min at a shear rate of 200 s^−1. (Puri et al., Blood, 103:3448-3456 (2004)) Approval was obtained from the Washington University institutional review board for these studies. Informed consent was provided according to the Declaration of Helsinki. Neutrophil-endothelial cell interactions were recorded and analyzed as previously described. (Puri et al., Blood, 103:3448-3456 (2004)) For E-selectin blockade, HUVECs were incubated with mAb CL3 (50 μg/ml, 15 min) prior to adhesion assays.
# E-selectin = assay: Flow cytometric analysis of E-selectin expression on TNFα-stimulated HUVECs; conditions: TNFα 4 hr; IC87114 2 to 50 μM, LY294002 10 μM, Bay 11-7082 10 μM
# Sequence of p110δ (Homo sapiens, UniProt O00329) (O00329 whole entry, species assumed): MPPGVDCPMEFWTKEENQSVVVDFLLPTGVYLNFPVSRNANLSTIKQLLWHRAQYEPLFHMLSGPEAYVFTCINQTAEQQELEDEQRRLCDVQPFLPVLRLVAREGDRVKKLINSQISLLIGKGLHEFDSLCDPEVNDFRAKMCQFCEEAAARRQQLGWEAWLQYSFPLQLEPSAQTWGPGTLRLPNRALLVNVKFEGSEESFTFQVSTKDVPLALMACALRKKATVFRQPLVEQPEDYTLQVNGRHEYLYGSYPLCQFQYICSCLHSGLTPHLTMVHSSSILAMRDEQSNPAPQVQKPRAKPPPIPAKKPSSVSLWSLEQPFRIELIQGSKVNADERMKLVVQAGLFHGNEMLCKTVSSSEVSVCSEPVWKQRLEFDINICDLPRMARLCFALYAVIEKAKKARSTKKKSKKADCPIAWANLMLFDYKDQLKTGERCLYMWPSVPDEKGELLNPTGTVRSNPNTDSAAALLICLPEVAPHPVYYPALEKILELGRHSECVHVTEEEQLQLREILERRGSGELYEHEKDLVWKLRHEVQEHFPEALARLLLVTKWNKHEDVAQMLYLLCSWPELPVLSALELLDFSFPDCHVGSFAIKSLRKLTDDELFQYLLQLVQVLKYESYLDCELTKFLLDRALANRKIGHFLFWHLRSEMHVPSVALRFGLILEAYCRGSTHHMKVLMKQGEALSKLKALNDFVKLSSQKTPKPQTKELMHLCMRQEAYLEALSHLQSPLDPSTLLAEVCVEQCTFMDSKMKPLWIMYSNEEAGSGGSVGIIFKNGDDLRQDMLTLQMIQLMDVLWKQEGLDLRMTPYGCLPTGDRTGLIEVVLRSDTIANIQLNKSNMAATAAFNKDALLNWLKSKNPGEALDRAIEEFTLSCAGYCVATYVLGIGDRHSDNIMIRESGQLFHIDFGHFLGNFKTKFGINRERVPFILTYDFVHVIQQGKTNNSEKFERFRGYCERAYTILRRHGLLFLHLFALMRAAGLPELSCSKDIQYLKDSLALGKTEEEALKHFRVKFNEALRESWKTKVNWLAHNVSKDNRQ
# Sequence of p110δ (Homo sapiens, UniProt O00329) (P27986 whole entry partner, species assumed): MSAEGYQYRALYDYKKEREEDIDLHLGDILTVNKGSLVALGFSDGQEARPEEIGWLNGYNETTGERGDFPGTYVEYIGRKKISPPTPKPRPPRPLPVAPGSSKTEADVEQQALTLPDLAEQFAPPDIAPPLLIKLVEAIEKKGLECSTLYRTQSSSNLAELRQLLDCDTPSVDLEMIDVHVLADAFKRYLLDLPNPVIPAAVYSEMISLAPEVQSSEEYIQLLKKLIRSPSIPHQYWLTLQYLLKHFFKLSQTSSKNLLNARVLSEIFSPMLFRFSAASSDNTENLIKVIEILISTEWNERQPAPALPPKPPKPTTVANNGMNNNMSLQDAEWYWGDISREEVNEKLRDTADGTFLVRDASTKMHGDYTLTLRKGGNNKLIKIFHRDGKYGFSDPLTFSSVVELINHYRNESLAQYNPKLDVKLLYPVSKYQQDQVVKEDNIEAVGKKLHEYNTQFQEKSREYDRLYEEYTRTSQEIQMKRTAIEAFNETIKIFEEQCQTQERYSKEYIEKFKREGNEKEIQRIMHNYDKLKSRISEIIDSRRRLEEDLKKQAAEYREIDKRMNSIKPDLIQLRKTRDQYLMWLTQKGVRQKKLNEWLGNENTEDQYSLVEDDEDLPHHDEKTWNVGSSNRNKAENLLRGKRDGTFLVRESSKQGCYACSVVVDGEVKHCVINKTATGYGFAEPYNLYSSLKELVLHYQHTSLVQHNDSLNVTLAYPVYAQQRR
# T1 sequence (O35904 whole entry): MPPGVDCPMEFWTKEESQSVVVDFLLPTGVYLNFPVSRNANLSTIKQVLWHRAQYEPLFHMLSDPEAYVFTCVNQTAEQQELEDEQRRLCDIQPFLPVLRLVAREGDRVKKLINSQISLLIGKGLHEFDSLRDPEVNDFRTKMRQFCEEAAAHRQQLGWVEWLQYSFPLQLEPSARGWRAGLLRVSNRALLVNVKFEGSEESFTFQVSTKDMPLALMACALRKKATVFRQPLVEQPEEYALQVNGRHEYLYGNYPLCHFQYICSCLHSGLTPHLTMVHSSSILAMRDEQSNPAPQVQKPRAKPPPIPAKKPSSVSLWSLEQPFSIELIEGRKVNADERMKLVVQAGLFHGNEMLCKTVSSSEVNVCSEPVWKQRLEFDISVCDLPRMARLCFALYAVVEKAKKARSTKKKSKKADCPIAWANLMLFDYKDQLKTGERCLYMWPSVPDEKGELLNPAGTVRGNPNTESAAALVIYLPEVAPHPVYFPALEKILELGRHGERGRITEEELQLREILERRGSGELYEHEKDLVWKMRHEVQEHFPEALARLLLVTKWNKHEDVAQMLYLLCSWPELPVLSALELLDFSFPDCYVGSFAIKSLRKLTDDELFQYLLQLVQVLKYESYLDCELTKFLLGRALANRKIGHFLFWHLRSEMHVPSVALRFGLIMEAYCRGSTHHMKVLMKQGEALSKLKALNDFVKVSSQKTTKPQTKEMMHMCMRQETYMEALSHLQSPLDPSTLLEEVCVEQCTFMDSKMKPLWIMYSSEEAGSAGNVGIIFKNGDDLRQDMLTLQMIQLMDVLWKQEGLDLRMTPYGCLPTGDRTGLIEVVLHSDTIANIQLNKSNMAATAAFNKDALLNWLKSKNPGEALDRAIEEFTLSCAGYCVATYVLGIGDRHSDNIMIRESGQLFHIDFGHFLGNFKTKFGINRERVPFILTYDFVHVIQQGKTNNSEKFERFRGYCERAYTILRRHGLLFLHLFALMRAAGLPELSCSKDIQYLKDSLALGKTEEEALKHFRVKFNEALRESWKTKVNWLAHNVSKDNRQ
# T1 sequence (P26450 whole entry partner): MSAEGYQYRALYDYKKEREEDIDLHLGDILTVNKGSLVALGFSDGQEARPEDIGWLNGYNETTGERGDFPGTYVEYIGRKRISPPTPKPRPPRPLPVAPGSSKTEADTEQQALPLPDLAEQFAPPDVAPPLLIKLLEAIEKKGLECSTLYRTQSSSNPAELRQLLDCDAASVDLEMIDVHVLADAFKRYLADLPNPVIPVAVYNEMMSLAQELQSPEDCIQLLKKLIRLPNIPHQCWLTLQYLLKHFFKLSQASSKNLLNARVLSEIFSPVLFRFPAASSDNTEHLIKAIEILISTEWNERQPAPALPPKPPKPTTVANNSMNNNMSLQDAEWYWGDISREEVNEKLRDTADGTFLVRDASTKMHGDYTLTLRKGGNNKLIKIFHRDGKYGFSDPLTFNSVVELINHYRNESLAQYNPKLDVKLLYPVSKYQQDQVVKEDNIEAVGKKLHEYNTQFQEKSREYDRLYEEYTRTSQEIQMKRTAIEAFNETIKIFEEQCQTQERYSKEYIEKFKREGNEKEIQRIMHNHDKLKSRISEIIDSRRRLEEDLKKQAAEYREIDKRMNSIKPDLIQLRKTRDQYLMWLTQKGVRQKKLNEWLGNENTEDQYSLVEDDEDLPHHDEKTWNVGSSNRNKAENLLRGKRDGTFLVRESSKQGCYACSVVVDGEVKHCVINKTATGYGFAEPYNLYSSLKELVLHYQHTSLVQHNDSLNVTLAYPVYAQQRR
compound,measurement,setting,value
Cc1ccccc1-n1c(Cn2cnc3c(N)ncnc32)nc2cccc(C)c2c1=O [IC87114],mean plasma level of the compound,[1],4.9 ± 2.7 µM
same,reduction of PIP3 production by immuno-precipitated p110δ,p110δ [2],> 90%
same,reduction in neutrophil attachment to and rolling on inflamed venular endothelium,[3],> 88%
same,inhibition of delta activity,p110δ [4]; 10 μM,> 95%
same,inhibition of p110δ activity at the mean plasma level,"p110δ [4]; 4.9±2.7 μM, Sadhu et al.",> 85%
Cc1ccc(S(=O)(=O)/C=C/C#N)cc1 [Bay 11-7082],reduction of capture/attachment of untreated neutrophils,[5],100%
same,TNFα-induced expression of E-selectin,E-selectin,abrogated
